Results: patent publication US7803930B2, “Antisense modulation of apolipoprotein B-expression” (Isis Pharmaceuticals, Inc., priority 2002, dated 2010)
In the oligonucleotide strings, read from the 5' end, every base follows the letter of its sugar. An asterisk marks phosphorothioate; unmarked linkages are phosphodiester. Other units and linkages are bracketed, terminal groups are in braces. A string of capitals states the bases alone. e = 2'-O-(2-methoxyethyl) (MOE); [5mC] = 5-methylcytosine; d = 2'-deoxy (DNA)

Tested on: rabbit apolipoprotein B mRNA
Assay: Inhibition of rabbit apolipoprotein B mRNA levels in primary rabbit hepatocytes, real-time PCR
Format: cell-based
Design: % INHIB of rabbit apolipoprotein B mRNA levels: concentration or dose not given beside the values
Conditions: for Percent Inhibition of rabbit apolipoprotein B mRNA levels: averages from two experiments
From the text: Primary rabbit hepatocytes were purchased from Invitro Technologies (Gaithersburg, Md.) and maintained in Dulbecco's modified Eagle's medium (Gibco). When purchased, the cells had been seeded into 96-well plates for use in RT-PCR analysis and were confluent.
In accordance with the present invention, a series of oligonucleotides was designed to target different regions of rabbit apolipoprotein B, using published sequences (GenBank accession number X07480.1, incorporated herein as SEQ ID NO: 808, GenBank accession number M17780.1, incorporated herein as SEQ ID NO: 809, and a sequence was derived using previously described primers (Tanaka, Journ. Biol. Chem., 1993,268, 12713-12718) representing an mRNA of the rabbit apolipoprotein B, incorporated herein as SEQ ID NO: 810). “Target site” indicates the first (5′-most) nucleotide number on the particular target sequence to which the oligonucleotide binds. All compounds in Table 21 are chimeric oligonucleotides (“gapmers”) 20 nucleotides in length, composed of a central “gap” region consisting of ten 2′-deoxynucleotides, which is flanked on both sides (5′ and 3′ directions) by five-nucleotide “wings”. The wings are composed of 2′-methoxyethyl (2′-MOE)nucleotides. The internucleoside (backbone) linkages are phosphorothioate (P═S) throughout the oligonucleotide. All cytidine residues are 5-methylcytidines. The compounds were analyzed for their effect on rabbit apolipoprotein B mRNA levels in primary rabbit hepatocytes by quantitative real-time PCR as described in other examples herein. Primary rabbit hepatocytes were treated with 150 nM of the compounds in Table 21. For rabbit apolipoprotein B the PCR primers were: • forward primer: AAGCACCCCCAATGTCACC (SEQ ID NO: 811) • reverse primer: […] (SEQ ID NO: 812) and the PCR probe was: FAM-[…]-TAMRA (SEQ ID NO: 813) where FAM (PE-Applied Biosystems, Foster City, Calif.) is the fluorescent reporter dye) and TAMRA (PE-Applied Biosystems, Foster City, Calif.) is the quencher dye. Data are averages from two experiments. If present, “N.D.” indicates “no data”.
In accordance with the present invention, a subset of the antisense oligonuclotides in Example 42 was further investigated in dose-response studies. Treatment doses were 10, 50, 150 and 300 nM. ISIS 233160 (SEQ ID NO: 824), ISIS 233166 (SEQ ID NO: 830), ISIS 233172 (SEQ ID NO: 835), ISIS 233175 (SEQ ID NO: 838), and ISIS 233183 (SEQ ID NO: 846) were analyzed for their effect on rabbit apolipoprotein B mRNA levels in primary rabbit hepatocytes by quantitative real-time PCR as described in other examples herein.

Row | Substance | % INHIB of rabbit apolipoprotein B mRNA levels | also measured
1 | 233151 (antisense eT*eA*eA*eT*e[5mC]*dA*dT*dT*dA*dA*d[5mC]*dT*dT*dG*d[5mC]*eT*eG*eT*eG*eG) [compound 233151] | 20% | –
2 | 233152 (antisense eT*e[5mC]*eA*eG*e[5mC]*dA*d[5mC]*dG*dT*dA*dG*d[5mC]*dA*dA*dT*eG*e[5mC]*eA*eT*eT) [compound 233152] | 0% | –
3 | 233153 (antisense eG*e[5mC]*e[5mC]*eT*eG*dA*dT*dA*d[5mC]*dT*d[5mC]*dA*dG*d[5mC]*dA*e[5mC]*eG*eT*eA*eG) [compound 233153] | 0% | –
4 | 233154 (antisense e[5mC]*eA*eA*eT*eT*dG*dA*dA*dT*dG*dT*dA*d[5mC]*dT*d[5mC]*eA*eG*eA*eT*eA) [compound 233154] | 18% | –
5 | 233155 (antisense eA*e[5mC]*e[5mC]*eT*e[5mC]*dA*dG*dT*dG*dA*d[5mC]*dT*dT*dG*dT*eA*eA*eT*e[5mC]*eA) [compound 233155] | 47% | –
6 | 233156 (antisense e[5mC]*eA*e[5mC]*eT*eG*dG*dA*dA*dA*d[5mC]*dT*dT*dG*dT*d[5mC]*eT*e[5mC]*eT*e[5mC]*e[5mC]) [compound 233156] | 23% | –
7 | 233157 (antisense eA*eG*eT*eA*eG*dT*dT*dA*dG*dT*dT*dT*d[5mC]*dT*d[5mC]*e[5mC]*eT*eT*eG*eG) [compound 233157] | 0% | –
8 | 233159 (antisense eT*e[5mC]*eA*eG*eT*dG*d[5mC]*d[5mC]*d[5mC]*dA*dA*dG*dA*dT*dG*eT*e[5mC]*eA*eG*e[5mC]) [compound 233159] | 0% | –
9 | 233160 (antisense eA*eT*eT*eG*eG*dA*dA*dT*dA*dA*dT*dG*dT*dA*dT*e[5mC]*e[5mC]*eA*eG*eG) [compound 233160] | 81% | Percent Inhibition of rabbit apolipoprotein B mRNA levels (10 nM): 33%; Percent Inhibition of rabbit apolipoprotein B mRNA levels (50 nM): 67%; Percent Inhibition of rabbit apolipoprotein B mRNA levels (150 nM): 74%; Percent Inhibition of rabbit apolipoprotein B mRNA levels (300 nM): 80%
10 | 233161 (antisense eT*eT*eG*eG*e[5mC]*dA*dT*dT*dA*dT*d[5mC]*d[5mC]*dA*dA*dT*eG*e[5mC]*eA*eG*eT) [compound 233161] | 28% | –
11 | 233162 (antisense eG*eT*eT*eG*e[5mC]*d[5mC]*dT*dT*dG*dT*dG*dA*dG*d[5mC]*dA*eG*e[5mC]*eA*eG*eT) [compound 233162] | 0% | –
12 | 233163 (antisense eA*eT*eT*eG*eT*dG*dA*dG*dT*dG*dG*dA*dG*dA*dT*eA*e[5mC]*eT*eT*e[5mC]) [compound 233163] | 80% | –
13 | 233164 (antisense e[5mC]*eA*eT*eA*eT*dG*dT*d[5mC]*dT*dG*dA*dA*dG*dT*dT*eG*eA*eG*eA*e[5mC]) [compound 233164] | 8% | –
14 | 233165 (antisense eG*eT*eA*eG*eA*dT*dA*d[5mC]*dT*d[5mC]*d[5mC]*dA*dT*dT*dT*eT*eG*eG*e[5mC]*e[5mC]) [compound 233165] | 0% | –
15 | 233166 (antisense eG*eG*eA*eT*e[5mC]*dA*d[5mC]*dA*dT*dG*dA*d[5mC]*dT*dG*dA*eA*eT*eG*e[5mC]*eT) [compound 233166] | 82% | Percent Inhibition of rabbit apolipoprotein B mRNA levels (10 nM): 66%; Percent Inhibition of rabbit apolipoprotein B mRNA levels (50 nM): 81%; Percent Inhibition of rabbit apolipoprotein B mRNA levels (150 nM): 79%; Percent Inhibition of rabbit apolipoprotein B mRNA levels (300 nM): 73%
16 | 233167 (antisense eT*e[5mC]*eA*eA*eG*d[5mC]*dT*dG*dG*dT*dT*dG*dT*dT*dG*e[5mC]*eA*e[5mC]*eT*eG) [compound 233167] | 28% | –
17 | 233168 (antisense eG*eG*eA*e[5mC]*eT*dG*dT*dA*d[5mC]*d[5mC]*dT*d[5mC]*dA*dA*dG*e[5mC]*eT*eG*eG*eT) [compound 233168] | 0% | –
18 | 233169 (antisense eG*e[5mC]*eT*e[5mC]*eA*dT*dT*d[5mC]*dT*d[5mC]*d[5mC]*dA*dG*d[5mC]*dA*eT*e[5mC]*eA*eG*eG) [compound 233169] | 14% | –

Row | Substance | % INHIB of rabbit apolipoprotein B mRNA levels | also measured
19 | 233170 (antisense eT*eT*eG*eA*eT*d[5mC]*dT*dA*dT*dA*dA*dT*dA*d[5mC]*dT*eA*eG*e[5mC]*eT*eA) [compound 233170] | 23% | –
20 | 233173 (antisense eT*eT*eG*eT*eG*dT*dT*d[5mC]*d[5mC]*dT*dT*dG*dA*dA*dG*e[5mC]*eG*eG*e[5mC]*e[5mC]) [compound 233173] | 3% | –
21 | 233174 (antisense eT*eG*eT*eG*e[5mC]*dA*d[5mC]*dG*dG*dA*dT*dA*dT*dG*dA*eT*eA*eA*e[5mC]*eG) [compound 233174] | 21% | –
22 | 233176 (antisense eG*eA*eA*eA*eT*d[5mC]*dT*dG*dG*dA*dA*dG*dA*dG*dA*eG*eA*e[5mC]*e[5mC]*eT) [compound 233176] | 62% | –
23 | 233177 (antisense eG*eT*eA*eG*e[5mC]*dT*dT*dT*d[5mC]*d[5mC]*d[5mC]*dA*dT*d[5mC]*dT*eA*eG*eG*e[5mC]*eT) [compound 233177] | 0% | –
24 | 233178 (antisense eG*eA*eT*eA*eA*d[5mC]*dT*d[5mC]*dT*dG*dT*dG*dA*dG*dG*eG*eT*eA*eG*e[5mC]) [compound 233178] | 0% | –
25 | 233179 (antisense eA*eT*eG*eT*eT*dG*d[5mC]*d[5mC]*d[5mC]*dA*dT*dG*dG*d[5mC]*dT*eG*eG*eA*eA*eT) [compound 233179] | 65% | –
26 | 233180 (antisense eA*eA*eG*eA*eT*dG*d[5mC]*dA*dG*dT*dA*d[5mC]*dT*dA*d[5mC]*eT*eT*e[5mC]*e[5mC]*eA) [compound 233180] | 13% | –
27 | 233181 (antisense eG*e[5mC]*eA*e[5mC]*e[5mC]*d[5mC]*dA*dG*dA*dA*dT*d[5mC]*dA*dT*dG*eG*e[5mC]*e[5mC]*eT*eG) [compound 233181] | 0% | –
28 | 233182 (antisense e[5mC]*eT*eT*eG*eA*dT*dA*d[5mC]*dT*dT*dG*dG*dT*dA*dT*e[5mC]*e[5mC]*eA*e[5mC]*eA) [compound 233182] | 59% | –
29 | 233183 (antisense e[5mC]*eA*eG*eT*eG*dT*dA*dA*dT*dG*dA*dT*d[5mC]*dG*dT*eT*eG*eA*eT*eT) [compound 233183] | 88% | Percent Inhibition of rabbit apolipoprotein B mRNA levels (10 nM): 30%; Percent Inhibition of rabbit apolipoprotein B mRNA levels (50 nM): 71%; Percent Inhibition of rabbit apolipoprotein B mRNA levels (150 nM): 81%; Percent Inhibition of rabbit apolipoprotein B mRNA levels (300 nM): 80%
30 | 233184 (antisense eT*eA*eA*eA*eG*dT*d[5mC]*d[5mC]*dA*dG*d[5mC]*dA*dT*dT*dG*eG*eT*eA*eT*eT) [compound 233184] | 69% | –
31 | 233185 (antisense e[5mC]*eA*eA*e[5mC]*eA*dA*dT*dG*dT*d[5mC]*dT*dG*dA*dT*dT*eG*eG*eT*eT*eA) [compound 233185] | 73% | –
32 | 233186 (antisense eG*eA*eA*eG*eA*dG*dG*dA*dA*dG*dA*dA*dA*dG*dG*eA*eT*eA*eT*eG) [compound 233186] | 60% | –
33 | 233187 (antisense eT*eG*eA*e[5mC]*eA*dG*dA*dT*dG*dA*dA*dG*dA*dG*dG*eA*eA*eG*eA*eA) [compound 233187] | 66% | –
34 | 233188 (antisense eT*eT*eG*eT*eA*d[5mC]*dT*dG*dT*dA*dG*dT*dG*d[5mC]*dA*eT*e[5mC]*eA*eA*eT) [compound 233188] | 74% | –
35 | 233189 (antisense eG*e[5mC]*e[5mC]*eT*e[5mC]*dA*dA*dT*d[5mC]*dT*dG*dT*dT*dG*dT*eT*eT*e[5mC]*eA*eG) [compound 233189] | 46% | –
36 | 233190 (antisense eA*e[5mC]*eT*eT*eG*dA*dG*d[5mC]*dG*dT*dG*d[5mC]*d[5mC]*d[5mC]*dT*e[5mC]*eT*eA*eA*eT) [compound 233190] | 69% | –
